# “Also recorded” adds a separate entry of the source.
# What was measured:
# [1] = test system: reserpine-treated rat model of Parkinson's disease; assay: Locomotion (mobile counts) in reserpine-treated rat model of Parkinson's disease, antagonist combined with chloro-APB or quinpirole; type: in vivo; details: for total mobile counts: antagonist 1 mg/kg plus chloro-APB 0.2 mg/kg, versus vehicle plus chloro-APB (FIG. 1)
# Experimental: The effect of metabotropic glutamate receptor antagonists on the anti-parkinsonian effects of chloro-APB (0.2 mg/kg) or quinpirole (0.1 mg/kg) was assessed in a reserpine-treated rat model of Parkinson's disease.
# Male Sprague-Dawley rats were split into two groups A and B. Rats in both groups were rendered parkinsonian by subcutaneous administration of reserpine (3 mg/kg) for 18 hours.
# After the 18 hours Group A were treated with either chloro-APB (0.2 mg/kg) or quinpirole (0.1 mg/kg) and then subdivided into groups A1, A2 and A3. These subgroups were additionally administered the following selective metabotropic glutamate receptor antagonists (1 mg/kg):
# A1: (RS)-1-Aminoindan-1,5-dicarboxylic acid (AIDA—Group I metabotropic glutamate receptor antagonist);
# A2: (2S)-alpha-Ethylglutamic acid (EGLU—Group II metabotropic glutamate receptor antagonist); and
# A3: (RS)-alpha-Methylserine-O-phosphate (MSOP—Group III metabotropic glutamate receptor antagonist).
# Group B were treated with chloro-APB (0.2 mg/kg) and vehicle for the antagonists only.
# The locomotion of the rats in Groups A and B was measured over a one hour period using Benwick locomotor monitors. These locomotion monitors consist of a visually-shielded open-field arena, the perimeter of which is surrounded by a series of infra-red beams arranged at 5 cm intervals. PC-based software (Amlogger) assesses the number of beams broken. The number of beams broken as part of a locomotor movement (mobile counts) or the number of beam breaks while the animal is not locomoting (static counts) were measured. In addition, the system assesses the time for which animals are mobile or static.
# [2] = test system: MPTP-lesioned marmoset model of Parkinson's disease; assay: Mobility, locomotor activity and dyskinesia in MPTP-lesioned marmoset model of Parkinson's disease, combination with L-DOPA; type: in vivo, Marmosets (Callithrix jacchus); details: MPTP-lesioned marmosets; for L-DOPA-induced mobility and locomotor activity (reversal of parkinsonism): L-DOPA 8 mg/kg with or without SIB-1893 10 mg/kg (FIG. 3)
# Experimental: The effect of the mGluR group I (selective for mGlu5) receptor antagonist SIB-1893 in combination with L-DOPA was assessed in the MPTP-lesioned marmoset model of Parkinson's disease. The ability of the traditional anti-parkinsonian agent L-DOPA to alleviate symptoms was compared with the combined therapy.
# Marmosets (Callithrix jacchus) (bred in a closed colony at the University of Manchester) are rendered parkinsonian by subcutaneous injection of 2 mg kg^−1 MPTP for 5 consecutive days. The marmosets are allowed to recover for a minimum of 10 weeks until their parkinsonism becomes stable. The degree of activity and disability before and after MPTP treatment is assessed using a combination of scales as described below. Animals are then treated with L-DOPA for at least 3 weeks to prime them to elicit dyskinesia.
# 1) Activity—a quantitative assessment using computer-based activity monitors was obtained every 5 minutes for the duration of the experiment. p1 2) Parkinsonian disability—non-parametric measures based on the following scales:
# Mobility score: 0=no movement, 1=movement of head on the floor of the cage, 2=movement of limbs, but no locomotion, on the floor of the cage, 3=movement of head or trunk on wall of cage or perch, 4=movement of limbs, but no locomotion, on wall of cage or perch, 5=walking around floor of cage or eating from hopper on floor, 6=hopping on floor of cage, 7=climbing onto wall of cage or perch, 8=climbing up and down the walls of the cage or along perch, 9=running, jumping, climbing between cage walls/perch/roof, uses limbs through a wide range of motion and activity.
# Dyskinesia score: 0Absent, 1=Mild, fleeting, 2=Moderate, not interfering with normal activity, 3=Marked, at times interfering with normal activity, 4=Severe, continuous, replacing normal activity.
# The behavioural tests were assessed every 30 minutes for 4 hours, by post hoc analysis of video-recordings by an observer blinded to the treatment.
# The treatments were randomised such that on each day all six marmosets received one of the treatments. […]
# [3] = reserpine-treated Sprague-Dawley rats, one hour
Compound,"total mobile counts [1, 3]",L-DOPA-induced mobility and locomotor activity (reversal of parkinsonism) [2],further results
"NC1(C(=O)O)CCc2cc(C(=O)O)ccc21 (racemic) [AIDA, (RS)-1-Aminoindan-1,5-dicarboxylic acid]",greater than those treated with vehicle and chloro-APB only,,"efficacy in combination therapy (overall conclusion) ([1]; reserpine-treated rats, combination with chloro-APB or quinpirole): particularly effective"
"CC(N)(COP(=O)(O)O)C(=O)O (racemic) [MSOP, (RS)-alpha-Methylserine-O-phosphate]",greater than those treated with vehicle and chloro-APB only,,
"CC[C@](N)(CCC(=O)O)C(=O)O [EGLU, (2S)-alpha-Ethylglutamic acid]",,,"mobility (locomotion) ([1]; reserpine-treated Sprague-Dawley rats, antagonist 1 mg/kg plus quinpirole 0.1 mg/kg, one hour, versus vehicle plus quinpirole (FIG. 2)): greater mobility than those treated with vehicle and quinpirole only"
N[C@@H](Cc1ccc(O)c(O)c1)C(=O)O [L-DOPA],,good anti-parkinsonian action,
"Cc1cccc(C=Cc2ccccc2)n1 [SIB-1893, 2-Methyl-6-(2-phenylethenyl)pyridine]",,good anti-parkinsonian action; also recorded: as effective as L-DOPA alone in reversing parkinsonism,"L-DOPA-induced dyskinesia ([2]; L-DOPA 8 mg/kg plus SIB-1893 10 mg/kg versus vehicle plus L-DOPA, p<0.05 (FIG. 4)): significantly less severe L-DOPA-induced dyskinesia"

# Source: patent publication US20030109504A1, “Treatment of movement disorders with metabotropic glutamate receptors antagonist” (priority 2000, published 2003)
